Assay results: ChEMBL document CHEMBL5325400 (Eur J Med Chem, 2023)
The source made the active and inactive calls. No cut-off for these calls is given here.

Legend:
[1] = tested on: A549; test: Induction of apoptosis in human A549 cells assessed as early apoptotic cells at 20 nM incubated for 24 hrs by annexin V-FITC/propidium iodide staining based flow cytometry analysis (reference value: 0.84%); format: functional
[2] = tested on: A549; test: Antiproliferative activity against human A549 cells expressing lentivirus RNAi VTI-96659 assessed as inhibition of cell growth measured after 48 hrs by MTT assay; format: functional, cell-based
[3] = Toxicity in BALB/c mouse assessed as adverse effect at 10 mg/kg, ip; format: organism-based; conditions: in vivo
[4] = tested on: A549; test: Inhibition of colony formation in human A549 cells incubated for 6 days by crystal violet staining based analysis; format: functional, cell-based; conditions: dose 1-20 nM, time 6.0 day
[5] = tested on: A549; test: Antitumor activity against human A549 cells xenografted in BALB/c mouse assessed as reduction in AKT phosphorylation at S473 residue in tumor at 5 to 10 mg/kg, ip administered every other day for 25 days by Western blotting analysis; format: functional, organism-based; conditions: dose 5-10 mg/kg, time 25.0 day
[6] = Toxicity in BALB/c mouse assessed as change in body weight at 10 mg/kg, ip; format: organism-based; conditions: in vivo
[7] = tested on: A2780/Taxol; test: Antiproliferative activity against paclitaxel resistant human A2780/Taxol cells assessed as inhibition of cell growth incubated for 48 hrs by MTT assay; format: functional, cell-based
[8] = tested on: A549; test: Induction of apoptosis in human A549 cells assessed as necrotic cells at 40 nM incubated for 24 hrs by annexin V-FITC/propidium iodide staining based flow cytometry analysis (reference value: 2.36%); format: functional
[9] = tested on: A549; test: Induction of apoptosis in human A549 cells assessed as viable cells at 20 nM incubated for 24 hrs by annexin V-FITC/propidium iodide staining based flow cytometry analysis (reference value: 96.44%); format: functional; conditions: read-out: Activity
[10] = tested on: A549; test: Induction of cell cycle arrest in human A549 cells assessed as accumulation at S phase at 20 nM incubated for 24 hrs by PI staining based flow cytometry (Rvb= 20.94%); format: functional
[11] = target: Tubulin (Sus scrofa) (UniProt P02554+P02550); test: Inhibition of porcine brain tubulin polymerization at 10 uM measured at 1 min interval for 60 mins by fluorescence based analysis
[12] = tested on: B16-F10; test: Antimigratory activity against mouse B16-F10 cells assessed as inhibition of cell migration at 10 nM and incubated for 12 hrs by scratch wound healing assay (reference value: 81.9 +/- 0.64%); format: functional; design: scale not given: the % may be the effect or the level left
[13] = tested on: A549; test: Induction of cell cycle arrest in human A549 cells assessed as accumulation at G2 phase at 20 nM incubated for 24 hrs by PI staining based flow cytometry (Rvb= 12.49%); format: functional
[14] = tested on: A549; test: Induction of apoptosis in human A549 cells assessed as early apoptotic cells at 10 nM incubated for 24 hrs by annexin V-FITC/propidium iodide staining based flow cytometry analysis (reference value: 0.84%); format: functional
[15] = tested on: A549; test: Antitumor activity against human A549 cells xenografted in BALB/c mouse assessed as upregulation of cleaved PARP expression in tumor at 10 mg/kg, ip administered every other day for 25 days by Western blotting analysis; format: functional, organism-based; conditions: time 25.0 day
[16] = tested on: A549; test: Antitumor activity against human A549 cells xenografted in BALB/c mouse assessed as upregulation of cleaved PARP expression in tumor at 5 mg/kg, ip administered every other day for 25 days by Western blotting analysis; format: functional, organism-based; conditions: time 25.0 day
[17] = tested on: A549; test: Antitumor activity against human A549 cells xenografted in BALB/c mouse assessed as tumor growth inhibition at 10 mg/kg, ip administered every other day for 25 days; format: functional; conditions: A549, 600 h, time 25 day, read-out: TGI
[18] = tested on: A549; test: Induction of apoptosis in human A549 cells assessed as necrotic cells at 20 nM incubated for 24 hrs by annexin V-FITC/propidium iodide staining based flow cytometry analysis (reference value: 2.36%); format: functional
[19] = tested on: A549; test: Induction of apoptosis in human A549 cells assessed as early apoptotic cells at 40 nM incubated for 24 hrs by annexin V-FITC/propidium iodide staining based flow cytometry analysis (reference value: 0.84%); format: functional
[20] = tested on: A549; test: Induction of cell cycle arrest in human A549 cells assessed as accumulation at G1 phase at 20 nM incubated for 24 hrs by PI staining based flow cytometry (Rvb= 65.68%); format: functional
[21] = tested on: HeLa; test: Antiproliferative activity against human HeLa cells assessed as inhibition of cell growth measured after 48 hrs by MTT assay; format: functional, cell-based
[22] = tested on: A549; test: Induction of apoptosis in human A549 cells assessed as late apoptotic cells at 10 nM incubated for 24 hrs by annexin V-FITC/propidium iodide staining based flow cytometry analysis (reference value: 0.37%); format: functional
[23] = Toxicity in BALB/c nude mouse xenografted with human A549 cells assessed as pathological changes in kidney at 5 to 10 mg/kg, ip administered every other day for 25 days by hematoxylin and eosin staining based microscopic analysis; format: organism-based; conditions: in vivo, 600 h, dose 5-10 mg/kg, time 25 day
[24] = tested on: B16-F10; test: Antimigratory activity against mouse B16-F10 cells assessed as inhibition of cell migration at 40 nM and incubated for 12 hrs by scratch wound healing assay (reference value: 81.9 +/- 0.64%); format: functional; design: scale not given: the % may be the effect or the level left
[25] = Toxicity in BALB/c mouse xenografted with human A549 cells assessed as change in body weight at 10 mg/kg, ip administered every other day for 25 days; format: organism-based; conditions: in vivo, 600 h, time 25 day
[26] = Toxicity in BALB/c nude mouse xenografted with human A549 cells assessed as pathological changes in spleen at 5 to 10 mg/kg, ip administered every other day for 25 days by hematoxylin and eosin staining based microscopic analysis; format: organism-based; conditions: in vivo, 600 h, dose 5-10 mg/kg, time 25 day
[27] = tested on: SK-OV-3; test: Antiproliferative activity against human SK-OV-3 cells assessed as inhibition of cell growth measured after 48 hrs by MTT assay; format: functional, cell-based; conditions: SK-OV-3, 48 h
[28] = tested on: A549; test: Antiproliferative activity against human A549 cells assessed as inhibition of cell growth measured after 48 hrs by MTT assay; format: functional, cell-based; conditions: A549, 48 h
[29] = tested on: A549; test: Antitumor activity against human A549 cells xenografted in ip dosed BALB/c mouse assessed as decrease in Ki-67 expression in tumor administered every other day for 25 days by immunohistochemistry analysis; format: functional, organism-based; conditions: dose 10.0 mg/kg, time 25.0 day
[30] = tested on: A549; test: Inhibition of cell migration in human A549 cells assessed as total number of cells migrated at 20 nM incubated for 12 hrs by crystal violet staining based transwell assay (reference value: 724 +/- 16); format: functional
[31] = tested on: A549; test: Antitumor activity against human A549 cells xenografted in BALB/c mouse assessed as tumor growth inhibition at 5 mg/kg, ip administered every other day for 25 days; format: functional; conditions: A549, 600 h, time 25 day, read-out: TGI
[32] = Toxicity in BALB/c nude mouse xenografted with human A549 cells assessed as pathological changes in heart at 5 to 10 mg/kg, ip administered every other day for 25 days by hematoxylin and eosin staining based microscopic analysis; format: organism-based; conditions: in vivo, 600 h, dose 5-10 mg/kg, time 25 day
[33] = tested on: A549; test: Antitumor activity against human A549 cells xenografted in BALB/c mouse assessed as reduction in EGFR phosphorylation at S473 residue in tumor at 5 to 10 mg/kg, ip administered every other day for 25 days by Western blotting analysis; format: functional, organism-based; conditions: dose 5-10 mg/kg, time 25.0 day
[34] = tested on: A549; test: Antimigratory activity against human A549 cells assessed as inhibition of cell migration at 20 nM and incubated for 12 hrs by scratch wound healing assay (reference value: 29.5 +/- 1.34%); format: functional; design: scale not given: the % may be the effect or the level left

Sequence of Tubulin (Sus scrofa) (P02550 whole entry, looked up): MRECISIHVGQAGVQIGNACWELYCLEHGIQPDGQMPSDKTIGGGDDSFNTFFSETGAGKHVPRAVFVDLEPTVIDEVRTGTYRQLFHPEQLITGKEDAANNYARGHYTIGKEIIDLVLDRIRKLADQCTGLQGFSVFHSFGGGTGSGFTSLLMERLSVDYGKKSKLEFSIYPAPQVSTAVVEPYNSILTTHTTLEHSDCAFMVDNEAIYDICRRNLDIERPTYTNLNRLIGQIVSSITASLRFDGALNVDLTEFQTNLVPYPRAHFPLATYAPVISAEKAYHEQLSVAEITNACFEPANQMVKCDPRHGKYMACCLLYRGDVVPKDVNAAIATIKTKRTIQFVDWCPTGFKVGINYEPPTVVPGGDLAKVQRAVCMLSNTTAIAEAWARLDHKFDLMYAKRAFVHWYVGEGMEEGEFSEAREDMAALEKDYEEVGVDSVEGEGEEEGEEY
Sequence of Tubulin (Sus scrofa) (P02554 whole entry, looked up): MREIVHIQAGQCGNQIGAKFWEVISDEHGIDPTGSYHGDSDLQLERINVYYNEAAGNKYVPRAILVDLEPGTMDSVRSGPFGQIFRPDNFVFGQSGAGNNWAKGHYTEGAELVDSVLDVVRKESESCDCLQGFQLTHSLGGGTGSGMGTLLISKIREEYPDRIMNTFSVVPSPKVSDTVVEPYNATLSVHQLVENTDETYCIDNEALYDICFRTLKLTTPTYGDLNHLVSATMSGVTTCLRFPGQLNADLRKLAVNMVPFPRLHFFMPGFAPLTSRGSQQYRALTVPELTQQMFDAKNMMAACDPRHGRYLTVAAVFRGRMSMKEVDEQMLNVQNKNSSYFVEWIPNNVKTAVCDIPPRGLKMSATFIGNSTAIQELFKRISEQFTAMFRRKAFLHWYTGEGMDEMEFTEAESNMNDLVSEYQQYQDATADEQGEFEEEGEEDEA

IC50 [7]: 132 nM
inhibition [11]: Active
IC50 [21]: 3.6 nM
IC50 [27]: 1.5 nM
IC50 [28]: 1.1 nM
Structure (SMILES): COc1cccc(Nc2cc(Nc3cccc(NC(=O)C4CC4)c3)ncn2)c1
Activity [1]: 1.69%
Activity [2]: Active
Activity [3]: Non-Toxic
inhibition [4]: Dose-Dependent Effect
Activity [5]: inactive
Activity [6]: Non-Toxic
Activity [8]: 5.78%
viability at 0.02 µM [9]: 76%
Activity [10]: 15.49%
Activity [12]: 49.9%
Activity [13]: 33.13%
Activity [14]: 1.5%
Activity [15]: Active
Activity [16]: Active
inhibition in vivo at 10 mg/kg [17]: 65.4%
Activity [18]: 6%
Activity [19]: 3.86%
Activity [20]: 48%
Activity [22]: 9.78%
Activity [23]: Non-Toxic
Activity [24]: 29.1%
Activity [25]: Non-Toxic
Activity [26]: Non-Toxic
Activity [29]: Dose-Dependent Effect
Activity [30]: 397
inhibition in vivo at 5 mg/kg [31]: 39.1%
Activity [32]: Non-Toxic
Activity [33]: inactive
Activity [34]: 9.8%
